Laboratory results taken from patent US12252484B2, “Pyrazolopyridine compounds for the treatment of autoimmune disease” (Hoffmann-La Roche Inc., priority 2018, dated 2025).

What follows are molecules tested against T1, human TLR8 (Homo sapiens, UniProt Q9NR97) (assay: HEK293-Blue-hTLR-8 cells assay (SEAP reporter, R848 stimulation)). Conditions: HEK293-Blue-hTLR-8 cells, R848 ligand, 20 hrs incubation; read-out: TLR8 IC50.
T1 sequence (Q9NR97 27-1041): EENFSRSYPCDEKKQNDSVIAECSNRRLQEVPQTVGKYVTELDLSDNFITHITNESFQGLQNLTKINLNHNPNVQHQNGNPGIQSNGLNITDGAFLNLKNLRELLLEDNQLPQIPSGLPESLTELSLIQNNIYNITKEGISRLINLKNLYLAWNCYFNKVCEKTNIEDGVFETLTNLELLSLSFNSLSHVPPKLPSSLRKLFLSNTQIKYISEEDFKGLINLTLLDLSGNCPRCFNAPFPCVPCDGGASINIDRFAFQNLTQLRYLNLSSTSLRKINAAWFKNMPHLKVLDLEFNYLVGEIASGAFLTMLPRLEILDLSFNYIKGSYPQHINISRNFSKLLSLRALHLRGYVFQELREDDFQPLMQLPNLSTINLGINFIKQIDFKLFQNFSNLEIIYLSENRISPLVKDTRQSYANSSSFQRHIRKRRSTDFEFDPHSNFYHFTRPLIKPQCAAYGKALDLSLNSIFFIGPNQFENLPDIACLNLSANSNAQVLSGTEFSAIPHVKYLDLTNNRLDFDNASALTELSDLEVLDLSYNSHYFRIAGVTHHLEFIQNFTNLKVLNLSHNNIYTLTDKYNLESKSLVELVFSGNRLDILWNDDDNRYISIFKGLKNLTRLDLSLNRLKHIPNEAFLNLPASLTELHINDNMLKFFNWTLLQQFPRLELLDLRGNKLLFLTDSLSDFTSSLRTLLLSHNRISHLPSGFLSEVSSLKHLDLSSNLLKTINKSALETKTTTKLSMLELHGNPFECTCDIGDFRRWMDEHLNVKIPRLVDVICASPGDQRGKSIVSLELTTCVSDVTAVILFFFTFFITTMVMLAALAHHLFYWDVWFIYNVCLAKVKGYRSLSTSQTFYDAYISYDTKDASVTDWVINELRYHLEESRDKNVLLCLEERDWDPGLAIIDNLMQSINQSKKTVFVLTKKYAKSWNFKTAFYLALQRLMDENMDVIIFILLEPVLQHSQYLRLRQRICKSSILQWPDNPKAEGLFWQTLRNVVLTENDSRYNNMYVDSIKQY
Type: cell-based
Method: The following tests were carried out in order to determine the activity of the compounds of formula (I) in HEK293-Blue-hTLR-7/8/9 cells assay.
HEK293-Blue-hTLR-8 Cells Assay:
A stable HEK293-Blue-hTLR-8 cell line was purchased from InvivoGen (Cat. #: hkb-htlr8, San Diego, California, USA). These cells were originally designed for studying the stimulation of human TLR8 by monitoring the activation of NF-κB. A SEAP (secreted embryonic alkaline phosphatase) reporter gene was placed under the control of the IFN-β minimal promoter fused to five NF-κB and AP-1-binding sites. The SEAP was induced by activating NF-κB and AP-1 via stimulating HEK-Blue hTLR8 cells with TLR8 ligands. Therefore the reporter expression was declined by TLR8 antagonist under the stimulation of a ligand, such as R848, for incubation of 20 hrs. The cell culture supernatant SEAP reporter activity was determined using QUANTI-Blue™ kit (Cat. #: rep-qb1, Invivogen, San Diego, Ca, USA) at a wavelength of 640 nm, a detection medium that turns purple or blue in the presence of alkaline phosphatase.
HEK293-Blue-hTLR8 cells were incubated at a density of 250,000˜450,000 cells/mL in a volume of 170 μL in a 96-well plate in Dulbecco's Modified Eagle's medium (DMEM) containing 4.5 g/L glucose, 50 U/mL penicillin, […], […], 2 mM L-glutamine, 10% (v/v) heat-inactivated fetal bovine serum with addition of 20 μL test compound in a serial dilution in the presence of final DMSO at 1% and 10 μL of 60 uM R848 in above DMEM, perform incubation under 37° C. in a CO2 incubator for 20 hrs. Then 20 μL of the supernatant from each well was incubated with 180 μL Quanti-blue substrate solution at 37° C. for 2 hrs and the absorbance was read at 620˜655 nm using a spectrophotometer. The signalling pathway that TLR8 activation leads to downstream NF-κB activation has been widely accepted, and therefore similar reporter assay was modified for evaluating TLR8 antagonist.

| SMILES | IC50 |
| --- | --- |
| C[C@@H]1CN(c2ccc(C#N)n3nccc23)C[C@H](C(=O)Nc2ccc(C(=O)N3CCNCC3)cc2)O1 [Example 42, (2R,6R)-4-(7-cyanopyrazolo[1,5-a]pyridin-4-yl)-6-methyl-N-[4-(piperazine-1-carbonyl)phenyl]morpholine-2-carboxamide] | 62 nM |
| C[C@@H]1CN(c2ccc(C#N)n3nccc23)C[C@H](C(=O)NC2CCNC2)O1 (stereo partly drawn) [Example 25, (2R,6R)-4-(7-cyanopyrazolo[1,5-a]pyridin-4-yl)-6-methyl-N-pyrrolidin-3-yl-morpholine-2-carboxamide] | 610 nM |
| C[C@@H]1CN(c2ccc(C#N)n3nccc23)C[C@H](C(=O)NC2CC3CCC2CN3C)O1 (stereo partly drawn) [Example 34, (2R,6R)-4-(7-cyanopyrazolo[1,5-a]pyridin-4-yl)-6-methyl-N-(2-methyl-2-azabicyclo[2.2.2]octan-5-yl)morpholine-2-carboxamide] | 98 nM |
| CCC(O)CNC(=O)[C@H]1CN(c2ccc(C#N)n3nccc23)C[C@@H](C)O1 (stereo partly drawn) [Example 13, (2R,6R)-4-(7-cyanopyrazolo[1,5-a]pyridin-4-yl)-N-(2-hydroxybutyl)-6-methyl-morpholine-2-carboxamide] | 570 nM |
| C[C@@H]1CN(c2ccc(C#N)n3nccc23)C[C@H](C(=O)NC23CC(CO)(C2)C3)O1 [Example 15, (2R,6R)-4-(7-cyanopyrazolo[1,5-a]pyridin-4-yl)-N-[3-(hydroxymethyl)-1-bicyclo[1.1.1]pentanyl]-6-methyl-morpholine-2-carboxamide] | 710 nM |
| C[C@@H]1CN(c2ccc(C#N)n3nccc23)C[C@H](C(=O)N[C@H]2CC[C@H](O)CC2)O1 [Example 21, Trans-(2R,6R)-4-(7-cyanopyrazolo[1,5-a]pyridin-4-yl)-N-(4-hydroxycyclohexyl)-6-methyl-morpholine-2-carboxamide] | 570 nM |
| C[C@@H]1CN(c2ccc(C#N)n3nccc23)C[C@H](C(=O)NC23CC4CC(CC(C4)C2)C3)O1 [Example 12, (2R,6R)-N-(1-adamantyl)-4-(7-cyanopyrazolo[1,5-a]pyridin-4-yl)-6-methyl-morpholine-2-carboxamide] | 320 nM |
| C[C@@H]1CN(c2ccc(C#N)n3nccc23)C[C@H](C(=O)NCC2CCNC2)O1 (stereo partly drawn) [Example 40, (2R,6R)-4-(7-cyanopyrazolo[1,5-a]pyridin-4-yl)-6-methyl-N-(pyrrolidin-3-ylmethyl)morpholine-2-carboxamide] | 380 nM |
| C[C@@H]1CN(c2ccc(C#N)n3nccc23)C[C@H](C(=O)NC2C3CNC[C@@H]32)O1 (stereo partly drawn) [Example 31, Trans-(2R,6R)-N-(3-azabicyclo[3.1.0]hexan-6-yl)-4-(7-cyanopyrazolo[1,5-a]pyridin-4-yl)-6-methyl-morpholine-2-carboxamide] | 72 nM |
| C[C@@H]1CN(c2ccc(C#N)n3nccc23)C[C@H](C(=O)NCC2CNCC2(F)F)O1 (stereo partly drawn) [Example 18, (2R,6R)-4-(7-cyanopyrazolo[1,5-a]pyridin-4-yl)-N-[(4,4-difluoropyrrolidin-3-yl)methyl]-6-methyl-morpholine-2-carboxamide] | 100 nM |
| C[C@H]1C[C@@H](NCC#N)CN(c2ccc(C#N)n3nccc23)C1 [Example 46, 4-[(3R,5S)-3-(cyanomethylamino)-5-methyl-1-piperidyl]pyrazolo[1,5-a]pyridine-7-carbonitrile] | 240 nM |
| C[C@@H]1CN(c2ccc(C#N)n3nccc23)C[C@H](C(=O)NC2CC3CCC(C2)N3C)O1 (stereo partly drawn) [Example 33, (2R,6R)-4-(7-cyanopyrazolo[1,5-a]pyridin-4-yl)-6-methyl-N-(8-methyl-8-azabicyclo[3.2.1]octan-3-yl)morpholine-2-carboxamide] | 58 nM |

These reach a lower IC50. Values come first.

| IC50 | SMILES |
| --- | --- |
| 31 nM | C[C@@H]1CN(c2ccc(C#N)n3nccc23)C[C@H](C(=O)NC2CN(C)CC23CC3)O1 (stereo partly drawn) [Example 32, (2R,6R)-4-(7-cyanopyrazolo[1,5-a]pyridin-4-yl)-6-methyl-N-(5-methyl-5-azaspiro[2.4]heptan-7-yl)morpholine-2-carboxamide] |
| 37 nM | C[C@@H]1CN(c2ccc(C#N)n3nccc23)C[C@H](C(=O)NC2CCNCC2)O1 [Example 24, (2R,6R)-4-(7-cyanopyrazolo[1,5-a]pyridin-4-yl)-6-methyl-N-(4-piperidyl)morpholine-2-carboxamide] |
| 7 nM | C[C@@H]1CN(c2ccc(Cl)n3nccc23)C[C@H](C(=O)NC2CCN(C)CC2)O1 [Example 38, (2R,6R)-4-(7-chloropyrazolo[1,5-a]pyridin-4-yl)-6-methyl-N-(1-methyl-4-piperidyl)morpholine-2-carboxamide] |
| 50 nM | C[C@@H]1CN(c2ccc(C#N)n3nccc23)C[C@H](C(=O)NCC2CN(C)CCO2)O1 (stereo partly drawn) [Example 7, (2R,6R)-4-(7-cyanopyrazolo[1,5-a]pyridin-4-yl)-6-methyl-N-[(4-methylmorpholin-2-yl)methyl]morpholine-2-carboxamide] |
| 11 nM | C[C@@H]1CN(c2ccc(C#N)n3nccc23)C[C@H](C(=O)NC2CCCNCC2)O1 (stereo partly drawn) [Example 6, (2R,6R)-N-(azepan-4-yl)-4-(7-cyanopyrazolo[1,5-a]pyridin-4-yl)-6-methyl-morpholine-2-carboxamide] |
| 30 nM | C[C@@H]1CN(c2ccc(C#N)n3nccc23)C[C@H](C(=O)NC2CC3CCCC(C2)N3)O1 (stereo partly drawn) [Example 14, (2R,6R)-N-(9-azabicyclo[3.3.1]nonan-3-yl)-4-(7-cyanopyrazolo[1,5-a]pyridin-4-yl)-6-methyl-morpholine-2-carboxamide] |
